Results as given in patent US11236401B2, “Sensors for detection and quantification of microbiological protein secretion” (SenseUp GmbH, priority 2015, dated 2022).
Where a SMILES comes first, the peptide text is derived from it. Bridges are numbered along the chain shown (N, C = ends). [ ]: non-standard residue; d: D form. The star is where a group is joined. Ileψ(thiazoline)Cys = CC[C@H](C)[C@H](N)C1=N[C@H](C(=O)*)CS1; dOrn = NCCC[C@@H](N)C(=O)O

How the values were obtained:
[1] = test system: strain ATCC 13032 pSen0706; assay: In vivo EYFP fluorescence of sensor strain ATCC 13032 pSen0706 (cg0706 promoter) as a function of antibiotic concentration, BioLector; type: cell-based, Corynebacterium glutamicum; conditions: ATCC 13032 pSen0706 in CGXII medium, 24 hours; antibiotic added after 4 hours; Vancomycine 0; 1.25; 2.5; 5; 10; 15; 20 μg/ml; Bacitracin 0; 1; 4 μg/ml; excitation 485 nm, emission 520/10 nm; FIGS. 1 and 2
Protocol: (§1) c) Detection of the fluorescence as a function of the concentration of a compound that is characterized by an antibiotic activity due to its property to damage the membrane of a bacterial cell.
The examination of in vivo fluorescence emission was carried out by culturing the cells of strain ATCC 13032 pSen0706 with 0.8 ml CGXII medium (Keilhauer et al, 1993, J. Bacteriol. 175: 5595-603) in microtiter dimension (Flowerplate® MTP-48-B) in the BioLector system (m2p-labs GmbH, 52499 Baesweiler, Germany). This system allows for the parallel cultivation of 48 cultures and regular and automated optical measurements of the culture growth as well as the fluorescence. 10 cultures with cells of strain ATCC 13032 pSen0706 were inoculated to an OD of 0.1 and cultured for 24 hours. After 4 hours the antibiotic substances Vancomycine or Bacitracine were added to the cultures. Vancomycine-concentrations were adjusted to 0; 1.25; 2.5; 5; 10; 15; 20 μg/ml and Bacitracin-concentrations were adjusted to 0; 1; 4 μg/ml. Every 10 minutes the cell densities of cultures and the fluorescence were measured. The fluorescence was excited with light of wavelength 485 nm, the fluorescence emission measurement of EYFP was carried out at 520/10 nm. The fluorescence of the cultures has been digitally recorded by means of the BioLection V.2.4.1.0 software.

[2] = test system: strain ATCC 13032 pSen1325; assay: In vivo EYFP fluorescence of sensor strain ATCC 13032 pSen1325 (cg1325 promoter) as a function of antibiotic concentration, BioLector; type: cell-based, Corynebacterium glutamicum; conditions: ATCC 13032 pSen1325 in CGXII medium, 24 hours; antibiotic added after 4 hours; Vancomycine 0; 1.25; 2.5; 5; 10; 15; 20 μg/ml; Bacitracin 0; 0.25; 0.5; 1; 2; 4 μg/ml; excitation 485 nm, emission 520/10 nm
Protocol: as §1
The examination of in vivo fluorescence emission was carried out by culturing the cells of strain ATCC 13032 pSen1325 with 0.8 ml CGXII medium (Keilhauer et al, 1993, J. Bacteriol. 175: 5595-603) in microtiter dimension (Flowerplate® MTP-48-B) in the BioLector system (m2p-labs GmbH, 52499 Baesweiler, Germany). 13 cultures with cells of strain ATCC 13032 pSen1325 were inoculated to an OD of 0.1 and cultured for 24 hours. After 4 hours the antibiotic substances Vancomycine or Bacitracine were added to the cultures. Vancomycine-concentrations were adjusted to 0; 1.25; 2.5; 5; 10; 15; 20 μg/ml and Bacitracin-concentrations were adjusted to 0; 0.25; 0.5; 1; 2; 4 μg/ml. Every 10 minutes the cell densities of cultures and the fluorescence were measured. The fluorescence was excited with light of wavelength 485 nm, the fluorescence emission measurement of EYFP was carried out at 520/10 nm. The fluorescence of the cultures has been digitally recorded by means of the BioLection V.2.4.1.0 software.

Row | SMILES | fluorescence emission of cultures as a function of the concentration of the compound [1] | fluorescence emission of cultures as a function of the concentration of the compound [2]
1 | CC[C@H](C)[C@H](N)C1=N[C@H](C(=O)N[C@@H](CC(C)C)C(=O)N[C@H](CCC(=O)O)C(=O)N[C@H](C(=O)N[C@H]2CCCCNC(=O)[C@H](CC(N)=O)NC(=O)[C@@H](CC(=O)O)NC(=O)[C@H](Cc3cnc[nH]3)NC(=O)[C@@H](Cc3ccccc3)NC(=O)[C@H]([C@@H](C)CC)NC(=O)[C@@H](CCCN)NC2=O)[C@@H](C)CC)CS1 [Bacitracine] ({Ileψ(thiazoline)Cys}-L[dE]IK[dOrn]I[dF]H[dD]N; lactam 4-C) | fluorescence emissions of cultures with different Vancomycine or Bacitracine concentrations also differs | fluorescence emissions of cultures with different Vancomycine or Bacitracine concentrations also differs
2 | CN[C@H](CC(C)C)C(=O)N[C@H]1C(=O)N[C@@H](CC(N)=O)C(=O)N[C@H]2C(=O)N[C@H]3C(=O)N[C@H](C(=O)N[C@H](C(=O)O)c4cc(O)cc(O)c4-c4cc3ccc4O)[C@H](O)c3ccc(c(Cl)c3)Oc3cc2cc(c3O[C@@H]2O[C@H](CO)[C@@H](O)[C@H](O)[C@H]2O[C@H]2C[C@](C)(N)[C@H](O)[C@H](C)O2)Oc2ccc(cc2Cl)[C@H]1O [Vancomycine] | fluorescence emissions of cultures with different Vancomycine or Bacitracine concentrations also differs | fluorescence emissions of cultures with different Vancomycine or Bacitracine concentrations also differs
